According to patent US11198710B2, “Transgenic plant having herbicide resistance” (priority 2016, dated 2021):

Tests used:
[1] = system: wild-type rapeseed plants (variety: Westar); assay: Rapeseed sensitivity test 1 (post-sowing/pre-emergence soil treatment), wild type; type: in vivo, Brassica napus
Method: (§1) Wild-type rapeseed plants (variety: Westar) and transgenic rapeseed plants comprising the wheat GST gene introduced therein were subjected to Rapeseed sensitivity test 1 in plastic pots (length: 8 cm; width: 8 cm; height: 6 cm). The test was carried out in Fujino soil (sandy loam soil), and 4 seeds of wild-type rapeseed and 8 seeds of transgenic rapeseed were sown in each pot (sowing depth: 1 cm). Water dispersible granules containing 50% pyroxasulfone were applied at 5 different doses of 1, 4, 16, 63, and 250 g a.i./ha (n=3). Immediately after pyroxasulfone treatment, about 1 mm of rain was fallen with the use of artificial rainfall device, and water was supplied from the bottom of the pots. Thereafter, water was supplied from the bottom of the pot when the soil surface was dried in the pot, according to need.
(§2) The difference in the sensitivity of rapeseed to pyroxasulfone applied pre-emergence was examined (temperature: 22° C., fluorescent light), and whether or not the transgenic rapeseed plant comprising wheat GST had pyroxasulfone resistance was evaluated in terms of the plant height, the herbicidal symptoms, and the cotyledon growth. Specifically, heights of the plants were measured 2 weeks after seeds sowing of rapeseed and pyroxasulfone application, and the inhibition was assessed by comparison to control plants grown in the absence of pyroxauslfone (n=4 to 12). In FIGS. 37 to 39, “TaGST” stands for a transgenic rapeseed plant comprising the TaQ8GTC0 gene. Values in the table in FIG. 38 are expressed as the mean±standard deviation (n=4 to 12).

[2] = system: wild-type Arabidopsis thaliana plant (Columbia-0); assay: Sensitivity of wild-type Arabidopsis thaliana to herbicides on MS agar medium; type: in vivo; conditions: 22° C., 14 days
Method: A medium was prepared as described below, so as to examine the pyroxasulfone resistance of the Arabidopsis thaliana plant comprising the TaQ8GTC0 gene introduced therein. At the outset, the Murashige-Skoog (MS) media (1 bag), thiamin hydrochloride (3 mg), nicotinic acid (5 mg), pyridoxin hydrochloride (0.5 mg), and sucrose (10 g) were added into a 1-liter beaker, a pH was adjusted to 5.7, the volume of the content was adjusted to 1 liter, and 8 g (0.8%) of agar was added. The resultant was autoclaved and cooled to room temperature, and pyroxasulfone (an acetone solution) was added thereto. A 30-ml fraction thereof was fractionated into a No. 2 square plate to prepare an MS medium containing pyroxasulfone at a given concentration.
Pyroxasulfone sensitivity of transgenic Arabidopsis thaliana plants was tested with the use of the medium prepared above as described below. A necessary amount of Arabidopsis thaliana dry seeds was agitated in 70% ethanol for 2 minutes and in hypochlorous acid containing 0.02% Triton-X-100 for 15 minutes, followed by washing with sterile water 10 times. Subsequently, the seeds were suspended in 1 ml of the autoclaved 0.1% agar solution, the suspension was thoroughly mixed to prepare a homogeneous solution, and a total of 30 seeds were each placed on the medium surface. […]

[3] = system: transgenic rapeseed plants comprising the TaQ8GTC0 gene; assay: Rapeseed sensitivity test 1 (post-sowing/pre-emergence soil treatment), transgenic; type: in vivo, Brassica napus
Method: as §1, §2

TaQ8GTC1-R protein = assay: Glutathione conjugation activity of the TaQ8GTC1-R protein to pyroxasulfone (HPLC); type: biochemical, wheat; conditions: 30° C., 1 hour
Method: The glutathione conjugation activity to pyroxasulfone was measured in a reaction mixture (200 μl in total) containing 50 μl of 100 mM potassium phosphate buffer (pH 6.8), 10 μl of 1 mM pyroxasulfone (acetone solution), 20 μl of 10 mM reduced glutathione (pH 7.0), and 120 μl of the TaQ8GTC1-R protein (PBS solution containing 20% glycerol), the reaction was conducted at 30° C. for 1 hour, the reaction product was filtered through a 0.2-μm filter, and 50 μl of the resulting solution was injected into HPLC. A reaction mixture (prepared with the addition of PBS containing 20% glycerol instead of the TaQ8GTC1-R protein) and another reaction mixture (prepared with the addition of PBS containing 20% glycerol and sterile water instead of the TaQ8GTC1-R protein and glutathione, respectively) were prepared as control reaction mixture. […]
Subsequently, the glutathione conjugation activity of the TaQ8GTC1-R protein to pyroxasulfone was examined. […] The amount of the protein added to the enzyme reaction mixture was determined to be 500 ng since about 50% of a total of 10 nmol of the added herbicides was converted into glutathione conjugates when the enzyme activity of the about 400 ng of TaQ8GTC0 (see Example 1) was inspected under the same conditions.

ZmQ9FQD1 = assay: Pyroxasulfone metabolizing activity based on the growth of cultured rice cells in medium; type: cell-based, maize; conditions: cultured rice cells with ZmQ9FQD1 gene; N6D medium, 100 μM (10^−4M) pyroxasulfone, 2 weeks
Method: (§3) The 2 lineages of cultured rice cells comprising the maize GST genes introduced thus prepared and the KLB-279 cultured transgenic rice cells (the control cells) were seeded on N6D medium, and pyroxasulfone resistance was inspected based on the growth of cultured rice cells 2 weeks later. Pyroxasulfone was subjected to the test as an acetone solution, the final acetone concentration to be added to the medium was 1%, and the final drug concentration was 10^−4 M.

ZmB8A3K0 = assay: as above; type: cell-based, maize; conditions: cultured rice cells with ZmB8A3K0 gene; N6D medium, 100 μM (10^−4M) pyroxasulfone, 2 weeks
Method: as §3

[4] = Brassica napus, 336 h, 16 g a.i./ha, 2 weeks after sowing and application, 22° C., read-out: shoot growth inhibition (plant height)

## Cn1nc(C(F)(F)F)c(CS(=O)(=O)C2=NOC(C)(C)C2)c1OC(F)F [Pyroxasulfone, 3-[5-(difluoromethoxy)-1-methyl-3-(trifluoromethyl)pyrazol-4-ylmethylsulfonyl]-4,5-dihydro-5,5-dimethyl-1,2-oxazole]
[1]; [4]
  inhibition at 16 g/ha: 61.9%
[1]; pre-emergence soil treatment
  dose at which cotyledon growth was substantially completely inhibited: ≥ 16 g a.i./ha
  dose at which cotyledons became dark green (herbicidal symptoms): ≥ 16 g a.i./ha
[2]
  pyroxasulfone concentration at which growth was substantially completely inhibited: ≥ 1 µM
[2]; pyroxasulfone 100 nM
  growth of the wild-type Arabidopsis thaliana plant: inhibited to some extent
[3]; 250 g a.i./ha
  cotyledon growth: grew to a certain extent
[3]; [4]
  inhibition at 16 g/ha: 48.2%
[3]; pre-emergence soil treatment, doses up to 250 g a.i./ha
  herbicidal symptoms (cotyledons dark green): not detected
TaQ8GTC1-R protein; 500 ng TaQ8GTC1-R protein
  glutathione conjugation activity to pyroxasulfone: did not possess glutathione conjugation activity
TaQ8GTC1-R protein; equivalent in enzyme reaction mixture (500 ng protein) and reaction mixture without enzyme
  pyroxasulfone added to the reaction mixture converted into M-15: about 3%
ZmQ9FQD1
  pyroxasulfone metabolizing activity (growth of cultured rice cells): no pyroxasulfone metabolizing activity
ZmB8A3K0
  pyroxasulfone metabolizing activity (growth of cultured rice cells): no pyroxasulfone metabolizing activity
